From ChEMBL document CHEMBL1201862, “PubChem BioAssay data set” (2004)
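Five concentrations, 48 hours, 96-well plates. The concentration for 50% growth inhibition is given as GI50.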 Activity calls are given as the source filed them. Cut-off read from the data, not from the text of the source: active = GI50 up to about 1.1 µM and inactive = higher.

What was measured:
Experiment in all cases: growth of human tumour cells (NCI), 48 h
SK-MEL-28 = system: SK-MEL-28
DMS-273 = system: DMS-273
Malme-3M = system: Malme-3M
SK-OV-3 = system: SK-OV-3
HCC 2998 = system: HCC 2998
UO-31 = system: UO-31
SF-539 = system: SF-539
HOP-18 = system: HOP-18
M19-MEL = system: M19-MEL
UACC-62 = system: UACC-62
A498 = system: A498
NCI-H23 = system: NCI-H23
RPMI-8226 = system: RPMI-8226
HL-60 = system: HL-60
KM-20L2 = system: KM-20L2
NCI-H460 = system: NCI-H460
U-251 = system: U-251
NCI/ADR-RES = system: NCI/ADR-RES
HOP-62 = system: HOP-62
K562 = system: K562
OVCAR-3 = system: OVCAR-3
OVCAR-4 = system: OVCAR-4
NCI-H522 = system: NCI-H522
HOP-92 = system: HOP-92
RXF 393 = system: RXF 393
HT-29 = system: HT-29
CAKI-1 = system: CAKI-1
SK-MEL-2 = system: SK-MEL-2
OVCAR-8 = system: OVCAR-8
HCT-15 = system: HCT-15
COLO 205 = system: COLO 205
DLD-1 = system: DLD-1
SNB-75 = system: SNB-75
CCRF-CEM = system: CCRF-CEM
UACC-257 = system: UACC-257
KM12 = system: KM12
SF-268 = system: SF-268
EKVX = system: EKVX
IGROV-1 = system: IGROV-1
SNB-19 = system: SNB-19
NCI-H226 = system: NCI-H226
SK-MEL-5 = system: SK-MEL-5
XF498 = system: XF498
OVCAR-5 = system: OVCAR-5
SW-620 = system: SW-620
MOLT-4 = system: MOLT-4
MCF7 = system: MCF7
SF-295 = system: SF-295
SN12C = system: SN12C
LOX IMVI = system: LOX IMVI
HCT-116 = system: HCT-116
A549 = system: A549
ACHN = system: ACHN
SNB-78 = system: SNB-78
SR = system: SR
786-0 = system: 786-0
TK-10 = system: TK-10
M14 = system: M14
LXFL 529 = system: LXFL 529
DMS-114 = system: DMS-114

## Cc1cc(NC(=S)Nc2ccccc2)c(NC(=S)Nc2ccccc2)cc1C
SK-MEL-28
  GI50: 38.8 µM (inactive)
DMS-273
  GI50: 17 µM (inactive)
Malme-3M
  GI50: 37.8 µM (inactive)
SK-OV-3
  GI50: 35 µM (inactive)
HCC 2998
  GI50: 20.6 µM (inactive)
UO-31
  GI50: 21.6 µM (inactive)
SF-539
  GI50: 16 µM (inactive)
HOP-18
  GI50: 43.2 µM (inactive)
M19-MEL
  GI50: 23.3 µM (inactive)
UACC-62
  GI50: 18.2 µM (inactive)
A498
  GI50: 36.1 µM (inactive)
NCI-H23
  GI50: 37.2 µM (inactive)
RPMI-8226
  GI50: 8.47 µM (inactive)
HL-60
  GI50: 1.9 µM (inactive)
KM-20L2
  GI50: 36.7 µM (inactive)
NCI-H460
  GI50: 12.9 µM (inactive)
U-251
  GI50: 15.7 µM (inactive)
NCI/ADR-RES
  GI50: 11.5 µM (inactive)
HOP-62
  GI50: 15.5 µM (inactive)
K562
  GI50: 9.44 µM (inactive)
OVCAR-3
  GI50: 21.1 µM (inactive)
OVCAR-4
  GI50: 32.3 µM (inactive)
NCI-H522
  GI50: 7.78 µM (inactive)
HOP-92
  GI50: 41.9 µM (inactive)
RXF 393
  GI50: > 46.8 µM (inactive)
HT-29
  GI50: 36.6 µM (inactive)
CAKI-1
  GI50: 9.91 µM (inactive)
SK-MEL-2
  GI50: 16.9 µM (inactive)
OVCAR-8
  GI50: 40.1 µM (inactive)
HCT-15
  GI50: 13.8 µM
COLO 205
  GI50: 26.1 µM (inactive)
DLD-1
  GI50: 20.4 µM (inactive)
SNB-75
  GI50: 27 µM (inactive)
CCRF-CEM
  GI50: 13.5 µM (inactive)
UACC-257
  GI50: 44 µM (inactive)
KM12
  GI50: 5.11 µM (inactive)
SF-268
  GI50: 36.8 µM (inactive)
EKVX
  GI50: 39.3 µM (inactive)
IGROV-1
  GI50: 22.8 µM (inactive)
SNB-19
  GI50: 47.9 µM (inactive)
NCI-H226
  GI50: 47.6 µM (inactive)
SK-MEL-5
  GI50: 11.4 µM (inactive)
XF498
  GI50: 16.4 µM (inactive)
OVCAR-5
  GI50: > 65 µM (inactive)
SW-620
  GI50: 11.6 µM (inactive)
MOLT-4
  GI50: 12.8 µM (inactive)
MCF7
  GI50: 26.6 µM (inactive)
SF-295
  GI50: 11.4 µM (inactive)
SN12C
  GI50: 40.4 µM (inactive)
LOX IMVI
  GI50: 39.4 µM (inactive)
HCT-116
  GI50: 14.3 µM (inactive)
A549
  GI50: 23.3 µM (inactive)

## CC1C2CC=CC(=O)[C@@]2(C)CCC12OCCO2 (stereo partly specified)
SK-MEL-28
  GI50: > 100 µM (inactive)
DMS-273
  GI50: > 100 µM (inactive)
Malme-3M
  GI50: 17.5 µM (inactive)
SK-OV-3
  GI50: > 100 µM (inactive)
HCC 2998
  GI50: > 100 µM (inactive)
UO-31
  GI50: > 100 µM (inactive)
SF-539
  GI50: > 100 µM (inactive)
M19-MEL
  GI50: > 100 µM (inactive)
UACC-62
  GI50: > 100 µM (inactive)
A498
  GI50: > 100 µM (inactive)
NCI-H23
  GI50: > 100 µM (inactive)
HL-60
  GI50: > 10 µM (inactive)
ACHN
  GI50: > 100 µM (inactive)
KM-20L2
  GI50: 49.9 µM (inactive)
NCI-H460
  GI50: > 100 µM (inactive)
U-251
  GI50: > 100 µM (inactive)
SNB-78
  GI50: > 100 µM (inactive)
SR
  GI50: > 100 µM (inactive)
HOP-62
  GI50: > 100 µM (inactive)
K562
  GI50: > 100 µM (inactive)
OVCAR-3
  GI50: > 100 µM (inactive)
OVCAR-4
  GI50: > 100 µM (inactive)
NCI-H522
  GI50: > 100 µM (inactive)
HOP-92
  GI50: > 100 µM (inactive)
RXF 393
  GI50: > 100 µM (inactive)
HT-29
  GI50: > 100 µM (inactive)
786-0
  GI50: > 100 µM (inactive)
CAKI-1
  GI50: > 100 µM (inactive)
TK-10
  GI50: > 100 µM (inactive)
SK-MEL-2
  GI50: > 100 µM (inactive)
OVCAR-8
  GI50: > 100 µM (inactive)
M14
  GI50: 97.1 µM (inactive)
DLD-1
  GI50: > 100 µM (inactive)
SNB-75
  GI50: 97.3 µM (inactive)
CCRF-CEM
  GI50: > 100 µM (inactive)
UACC-257
  GI50: > 100 µM (inactive)
KM12
  GI50: > 100 µM (inactive)
SF-268
  GI50: > 100 µM (inactive)
EKVX
  GI50: > 100 µM (inactive)
IGROV-1
  GI50: > 100 µM (inactive)
SNB-19
  GI50: > 100 µM (inactive)
NCI-H226
  GI50: > 100 µM (inactive)
SK-MEL-5
  GI50: 24.6 µM (inactive)
LXFL 529
  GI50: > 100 µM (inactive)
OVCAR-5
  GI50: > 100 µM (inactive)
DMS-114
  GI50: > 100 µM (inactive)
SW-620
  GI50: > 100 µM (inactive)
MOLT-4
  GI50: > 100 µM (inactive)
SF-295
  GI50: > 100 µM (inactive)
SN12C
  GI50: > 100 µM (inactive)
HCT-116
  GI50: > 100 µM (inactive)
A549
  GI50: > 100 µM (inactive)

## CCN(CC)CCCCC1CCN(CC(=O)N2CC(C)C(=O)Nc3ccccc32)CC1 (stereo unspecified)
SK-MEL-28
  GI50: > 100 µM (inactive)
DMS-273
  GI50: > 100 µM (inactive)
Malme-3M
  GI50: > 100 µM (inactive)
SK-OV-3
  GI50: > 100 µM (inactive)
HCC 2998
  GI50: > 100 µM (inactive)
UO-31
  GI50: > 100 µM (inactive)
HOP-18
  GI50: > 100 µM (inactive)
M19-MEL
  GI50: > 100 µM (inactive)
UACC-62
  GI50: > 100 µM (inactive)
A498
  GI50: > 100 µM (inactive)
NCI-H23
  GI50: > 100 µM (inactive)
RPMI-8226
  GI50: > 100 µM (inactive)
HL-60
  GI50: > 100 µM (inactive)
ACHN
  GI50: > 100 µM (inactive)
KM-20L2
  GI50: > 100 µM (inactive)
NCI-H460
  GI50: > 100 µM (inactive)
U-251
  GI50: > 100 µM (inactive)
SR
  GI50: > 100 µM (inactive)
HOP-62
  GI50: > 100 µM (inactive)
K562
  GI50: > 100 µM (inactive)
OVCAR-3
  GI50: > 100 µM (inactive)
OVCAR-4
  GI50: > 100 µM (inactive)
HOP-92
  GI50: > 100 µM (inactive)
HT-29
  GI50: > 100 µM (inactive)
786-0
  GI50: > 100 µM (inactive)
CAKI-1
  GI50: > 100 µM (inactive)
HCT-15
  GI50: > 100 µM
COLO 205
  GI50: > 100 µM (inactive)
M14
  GI50: > 100 µM (inactive)
DLD-1
  GI50: > 100 µM (inactive)
CCRF-CEM
  GI50: > 100 µM (inactive)
UACC-257
  GI50: > 100 µM (inactive)
SF-268
  GI50: > 100 µM (inactive)
IGROV-1
  GI50: > 100 µM (inactive)
SNB-19
  GI50: > 100 µM (inactive)
NCI-H226
  GI50: > 100 µM (inactive)
SK-MEL-5
  GI50: > 100 µM (inactive)
LXFL 529
  GI50: > 100 µM (inactive)
OVCAR-5
  GI50: > 100 µM (inactive)
DMS-114
  GI50: > 100 µM (inactive)
SW-620
  GI50: > 100 µM (inactive)
MOLT-4
  GI50: > 100 µM (inactive)
SF-295
  GI50: > 100 µM (inactive)
SN12C
  GI50: > 100 µM (inactive)
LOX IMVI
  GI50: > 100 µM (inactive)
HCT-116
  GI50: > 100 µM (inactive)
A549
  GI50: > 100 µM (inactive)
